From US12729192B2, “CDK9 inhibitor and use thereof” (PHARMABLOCK SCIENCES (NANJING), INC., priority 2020, dated 2026) come the findings set out here.

Like-named read-outs stand apart in the source and are kept apart here.

For one assay, the target named is T1, CDK2 (Homo sapiens, UniProt P24941).
T1 construct: purchased Carna Biosciences, Inc
The assay is described as follows: CDK2 kinase activity inhibition (ADP-Glo). Type of assay: biochemical. As to conditions: 10 μM ATP, 2 h at room temperature. Background: In ADP-Glo the light output rises with the ADP produced.

The target of the next assay is T2, CDK7 (Homo sapiens, UniProt P50613).
T2 construct: purchased Carna Biosciences, Inc
T2 sequence (P50613 whole entry): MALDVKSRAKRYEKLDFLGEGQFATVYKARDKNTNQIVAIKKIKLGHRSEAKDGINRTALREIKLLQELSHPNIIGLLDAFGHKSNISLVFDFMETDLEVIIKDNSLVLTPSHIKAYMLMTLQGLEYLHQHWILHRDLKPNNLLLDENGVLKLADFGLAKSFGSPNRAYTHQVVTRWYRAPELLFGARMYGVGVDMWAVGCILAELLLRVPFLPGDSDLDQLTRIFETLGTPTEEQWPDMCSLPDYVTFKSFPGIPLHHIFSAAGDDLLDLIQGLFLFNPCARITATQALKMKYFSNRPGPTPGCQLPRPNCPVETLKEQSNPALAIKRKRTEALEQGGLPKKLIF
T2 sequence (P51946 whole entry partner): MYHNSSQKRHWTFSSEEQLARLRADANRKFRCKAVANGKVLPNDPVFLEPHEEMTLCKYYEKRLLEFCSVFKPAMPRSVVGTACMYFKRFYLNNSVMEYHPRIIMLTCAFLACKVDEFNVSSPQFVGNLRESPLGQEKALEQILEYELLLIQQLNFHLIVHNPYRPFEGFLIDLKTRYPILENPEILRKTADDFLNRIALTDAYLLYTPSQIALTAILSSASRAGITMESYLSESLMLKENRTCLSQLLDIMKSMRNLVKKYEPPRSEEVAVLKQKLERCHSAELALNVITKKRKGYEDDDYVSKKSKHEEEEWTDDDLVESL
T2 sequence (P51948 whole entry partner): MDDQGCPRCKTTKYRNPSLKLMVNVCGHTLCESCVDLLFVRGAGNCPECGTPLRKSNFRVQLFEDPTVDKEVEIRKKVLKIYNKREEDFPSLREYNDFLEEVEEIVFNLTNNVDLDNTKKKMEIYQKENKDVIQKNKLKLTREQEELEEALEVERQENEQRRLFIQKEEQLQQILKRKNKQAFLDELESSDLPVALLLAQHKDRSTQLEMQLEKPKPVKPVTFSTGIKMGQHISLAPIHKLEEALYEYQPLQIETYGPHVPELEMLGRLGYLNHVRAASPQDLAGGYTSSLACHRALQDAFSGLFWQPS
In words: CDK7 kinase activity inhibition (ADP-Glo). As to conditions: 10 μM ATP, 2 h at room temperature. The class given is biochemical.

A further assay has as its target T3, CDK1 (Homo sapiens, UniProt P06493).
T3 construct: purchased Carna Biosciences, Inc
In words: CDK1 kinase activity inhibition (ADP-Glo). The class given is biochemical. To be noted: 50 μM ATP, 2 h at room temperature. As for the experimental part:
CDK9 kinase was manufactured by the company or commercially available. CDK1, CDK2 and CDK7 were purchased from Carna Biosciences, Inc. ADP-Glo™ kit was purchased from Promega Corporation. Dithiothreitol (DTT), Tween-20, dimethylsulfoxide (DMSO), bovine serum albumin (BSA) and Tris base were obtained from Sigma at the available highest level of purity.
General procedures for CDK inhibition determination: The determination was performed in a buffer consisting of 50 μM DTT, 0.1% BSA, 40 mM Tris-HCl pH=7.5 and 20 mM MgCl2. The compound dissolved in DMSO and CDK enzymes were diluted with the buffer. 1 μL of the compound solution in 5% DMSO and 2 μL of the CDK enzyme solution were added to a white low-volume 384-well microtiter plate and incubated for 20 min at room temperature. Ultra pure ATP and the substrate polypeptide (purchased from GenScript Biotech Corporation) were diluted together into the buffer and added to a mixed solution of the compound and the enzyme, 2 μL per well. They were incubated for 2 h at room temperature.
After the reaction was completed, 5 μL of ADP-Glo™ reagent was added to each well and incubated for 40 min at room temperature, and then 10 μL of test reagent was added to each well and incubated for 30 mi at room temperature. Chemical luminescence values were measured by using a Tecan (Männedorf, Switzerland) multifunctional plate reader Spark for plate reading. The IC50 value of the inhibitor was obtained by fitting the chemical luminescence intensity ratio in the S-shaped dosage reaction curve using Prism 7 (La Jolla, 15 CA) relative to the concentration of the inhibitor.

The subject of the next assay is MOLM-13 cells. The assay is described as follows: Tumor cell proliferation inhibition experiment (CellTiter-Glo). The class given is cell-based. As to conditions: Homo sapiens, read-out: MOLM-13 (nM) IC50, cell proliferation inhibition. The text has this:
An acute myeloid leukemia (AML) cell line (MOLM-13) was purchased from NANJING COBIOER BIOSCIENCES CO., LTD. An RPMI1640 medium and a penicillin-streptomycin double-antibody were purchased from ThermoFisher (Waltham, MA, USA). Certified fetal bovine serum (FBS) was purchased from Biological Industries (Israel). A Corning 384-well cell culture plate was purchased from CORNING (USA). Cell-Titer Glo® was purchased from Promega Corporation (Madison, WI, USA).
To evaluate the ability of the synthetic compound to inhibit the proliferation of MOLM-13 cells, MOLM-13 cells at an exponential growth stage were inoculated at a density of 500,000 cell/mL in the RPMI1640 medium containing 20% bovine serum and 1% penicillin-streptomycin double-antibody, and the 384-well plate contained 20 μL per well and placed overnight in an 37° C., 5% CO2 incubator. Compound powder was dissolved in DMSO to prepare a storage mother liquor with a concentration of 2 mM, and 12 dilutions with three-fold gradient concentrations were further prepared. 1 μL of gradient-diluted DMSO solution was added to 99 μL of cell culture medium (the final maximum concentration of the compound in the assay was 10 uM and the final concentration of DMSO was 0.5%). 20 μL of compound solution in the medium was added at gradients to each cell-coated test well of the 384-well plate. After the compound solution was added, the 384-well plate was incubated for 16 h in a 37° C., 5% CO2 incubator. Cell viability was determined by quantifying ATPs present in test wells using the CellTiter-Glo kit from Promega (Madison, WI, USA). After 20 minutes of incubation, readings were obtained under a chemical luminescence procedure using Tecan's Spark multifunctional plate reader. The concentration (IC50 value) of the compound at which the cell survival rate was inhibited by 50% was determined using an S-shaped dosage response model (variable slope, four parameters) in Prism 7 (LaJolla, CA).

The target in the next assay is CDK9 (Homo sapiens, UniProt P50750). The assay is described as follows: CDK9 kinase activity inhibition (ADP-Glo). To be noted: 10 μM ATP, 2 h at room temperature. The class given is biochemical.
Chain of CDK9 (P50750 whole entry): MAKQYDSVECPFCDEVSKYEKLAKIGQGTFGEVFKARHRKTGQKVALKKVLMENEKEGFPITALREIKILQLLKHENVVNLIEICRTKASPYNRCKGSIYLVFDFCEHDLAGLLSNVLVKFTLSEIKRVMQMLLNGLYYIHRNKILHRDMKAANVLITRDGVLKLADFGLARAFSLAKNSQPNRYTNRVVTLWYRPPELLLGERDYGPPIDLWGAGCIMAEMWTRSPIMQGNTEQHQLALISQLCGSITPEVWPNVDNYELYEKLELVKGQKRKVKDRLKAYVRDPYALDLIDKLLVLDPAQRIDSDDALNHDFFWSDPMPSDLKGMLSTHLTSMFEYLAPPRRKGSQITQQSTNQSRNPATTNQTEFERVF
Chain of CDK9 (O60563 whole entry partner): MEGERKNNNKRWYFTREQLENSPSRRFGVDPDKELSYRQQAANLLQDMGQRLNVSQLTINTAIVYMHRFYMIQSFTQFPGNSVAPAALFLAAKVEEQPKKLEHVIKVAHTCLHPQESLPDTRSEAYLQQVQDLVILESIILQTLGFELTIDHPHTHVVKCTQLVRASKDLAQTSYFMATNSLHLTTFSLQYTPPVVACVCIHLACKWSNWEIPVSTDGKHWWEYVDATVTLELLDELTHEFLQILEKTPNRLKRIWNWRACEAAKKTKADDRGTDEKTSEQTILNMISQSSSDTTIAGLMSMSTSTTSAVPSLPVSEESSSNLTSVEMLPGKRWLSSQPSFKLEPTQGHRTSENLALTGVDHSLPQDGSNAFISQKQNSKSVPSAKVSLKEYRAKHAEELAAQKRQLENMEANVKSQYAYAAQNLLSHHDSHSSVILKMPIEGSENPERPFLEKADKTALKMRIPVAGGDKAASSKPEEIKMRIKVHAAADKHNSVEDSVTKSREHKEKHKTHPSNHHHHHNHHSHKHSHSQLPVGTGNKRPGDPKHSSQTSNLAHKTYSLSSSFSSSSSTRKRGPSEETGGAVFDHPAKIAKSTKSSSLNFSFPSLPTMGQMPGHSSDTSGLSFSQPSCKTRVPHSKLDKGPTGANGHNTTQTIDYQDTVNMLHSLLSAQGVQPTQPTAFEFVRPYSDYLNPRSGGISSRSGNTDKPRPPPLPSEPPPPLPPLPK
Setting [1] is: acute myeloid leukemia cell line MOLM-13, 16 h incubation, CellTiter-Glo.

T3 sequence (P06493 whole entry): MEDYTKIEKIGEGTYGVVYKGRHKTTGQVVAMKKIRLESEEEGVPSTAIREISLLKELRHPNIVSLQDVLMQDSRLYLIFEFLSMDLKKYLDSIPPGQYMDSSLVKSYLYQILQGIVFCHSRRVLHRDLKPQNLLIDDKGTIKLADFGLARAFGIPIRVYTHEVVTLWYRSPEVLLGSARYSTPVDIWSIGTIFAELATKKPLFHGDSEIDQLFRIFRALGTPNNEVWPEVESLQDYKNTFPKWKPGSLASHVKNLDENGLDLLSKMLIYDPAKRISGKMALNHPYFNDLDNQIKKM
T3 sequence (P14635 whole entry partner): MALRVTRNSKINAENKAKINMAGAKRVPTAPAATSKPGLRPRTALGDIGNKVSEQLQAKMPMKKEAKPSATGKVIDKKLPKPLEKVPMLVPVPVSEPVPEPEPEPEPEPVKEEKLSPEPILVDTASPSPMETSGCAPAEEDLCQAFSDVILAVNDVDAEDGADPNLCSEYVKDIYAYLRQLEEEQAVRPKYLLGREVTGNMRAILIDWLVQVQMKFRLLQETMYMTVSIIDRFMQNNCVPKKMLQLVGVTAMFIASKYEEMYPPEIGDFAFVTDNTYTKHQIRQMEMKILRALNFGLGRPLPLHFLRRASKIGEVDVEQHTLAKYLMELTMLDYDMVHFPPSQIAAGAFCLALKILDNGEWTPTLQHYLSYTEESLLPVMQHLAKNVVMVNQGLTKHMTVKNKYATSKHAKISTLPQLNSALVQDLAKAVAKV

With `CC(=O)N[C@@H]1CCC[C@H](C(=O)Nc2cc(-c3cnn4c3CC(C)(C)C4)c(Cl)cn2)C1` [AZD4573, reference compound], the IC50 against CDK2 was 18.6 nM; against CDK7, 31.4 nM; on CDK1, 8.3 nM; in the assay on MOLM-13 cells (setting [1]), 17.1 nM.
For `COc1cc(F)ccc1-c1cc(Nc2cc(CS(C)(=N)=O)ccn2)ncc1F` (stereo not drawn) [BAY1251152, reference compound], the IC50 at CDK2 worked out at 811 nM; at CDK7, 4290 nM; against CDK1, 570 nM; in the assay on MOLM-13 cells (setting [1]), 118 nM.
Turning to `CC(=O)NC[C@H]1CCC(F)(F)CN1C(=O)c1nc(Nc2cc(OC(F)(F)F)ccn2)ccc1C` [Compound 5, (R)—N-((5,5-difluoro-1-(3-methyl-6-((4-(trifluoromethoxy)pyridin-2-yl)amino)pyridine-2-carbonyl)piperidin-2-yl)methyl)acetamide], the IC50 against CDK9 is 5.8 nM; against CDK2 it was 217 nM; on CDK7, 2600 nM; against CDK1 it was 350 nM; with MOLM-13 cells (setting [1]), 27.9 nM.
As for `CC(=O)NC[C@H]1CCC(F)(F)CN1C(=O)c1nc(Nc2cc(OC(F)F)ccn2)ccc1C` [Compound 11, (R)—N-((1-(6-((4-(difluoromethoxy)pyridin-2-yl)amino)-3-methylpyridine-2-carbonyl)-5,5-difluoropiperidin-2-yl)methyl)acetamide], the IC50 at CDK9 was found to be 5.1 nM; against CDK2 it was 368 nM; against CDK7 it was 4350 nM; against CDK1 it was 755 nM; with MOLM-13 cells (setting [1]), 45.3 nM.
For `CC(=O)NC[C@H]1CCC(F)(F)CN1C(=O)c1nc(Nc2cc([N+](=O)[O-])ccn2)ccc1C` [Compound 19, (R)—N-((5,5-difluoro-1-(3-methyl-6-((4-nitropyridin-2-yl)amino)pyridine-2-carbonyl)piperidin-2-yl)methyl)acetamide] the same measures were 9 nM, 48.7 nM, 7780 nM, 106 nM and 24.2 nM.
For `CC(=O)NC[C@H]1CCC(F)(F)CN1C(=O)c1nc(Nc2cc(Cl)ccn2)ccc1C` [Compound 24, (R)—N-((1-(6-((4-chloropyridin-2-yl)amino)-3-methylpyridine-2-carbonyl)-5,5-difluoropiperidin-2-yl)methyl)acetamide] the same measures were 7.1 nM, 408 nM, 8760 nM, greater than 10000 nM and 70.9 nM.
For `CC(=O)NC[C@H]1CCC(F)(F)CN1C(=O)c1nc(Nc2cc(C(F)F)ccn2)ccc1C` [Compound 27, (R)—N-((1-(6-((4-(difluoromethyl)pyridin-2-yl)amino)-3-methylpyridine-2-carbonyl)-5,5-difluoropiperidin-2-yl)methyl)acetamide] the same measures were 5.8 nM, 144 nM, 4570 nM, 426 nM and 22.1 nM.
On to `CC(=O)NC[C@H]1CCC(F)(F)CN1C(=O)c1nc(Nc2cc(C(F)(F)F)ccn2)ccc1C` [Compound 30, (R)—N-((5,5-difluoro-1-(3-methyl-6-((4-(trifluoromethyl)pyridin-2-yl)amino)pyridine-2-carbonyl)piperidin-2-yl)methyl)acetamide], for which the IC50 on CDK9 came out at 11.7 nM; at CDK2, 99.3 nM; at CDK7, 3180 nM; at CDK1, 291 nM; with MOLM-13 cells (setting [1]) it was 11.3 nM.
With `COC(=O)c1ccnc(Nc2ccc(C)c(C(=O)N3CC(F)(F)CC[C@@H]3CNC(C)=O)n2)c1` [Compound 56, (R)-2-((6-(2-(acetamidomethyl)-5,5-difluoropiperidine-1-carbonyl)-5-methylpyridin-2-yl)amino)methyl isonicotinate], the IC50 on CDK9 came to 7.7 nM; against CDK2 it was 924 nM; at CDK1, 3750 nM; in the assay with MOLM-13 cells (MOLM-13, 16 h), 180 nM.
